Values after ≈ are worked out from the molar mass of the structure shown. Like-named read-outs stand apart in the source and are kept apart here.
How the values were obtained:
PARG = PARG (Homo sapiens, UniProt Q86W56); assay: Biochemical assay (PARG, TFMU-ADPr substrate)
[1] = Solubility assay (FaSSGF / FaSSIF); type: physicochemical; conditions: kinetic from dmso stock, 2 h at 25° C.
Protocol: 1). Preparation of Solutions:
The FaSSGF solution was prepared as follows: • a) preparation of FaSSGF buffer: dissolve 2.0 g of NaCl as the raw material in about 0.9 L of purified water; • b) adjustment of the pH of the buffer: adjust the pH of the buffer to 1.6 with 1N HCL, and replenish the buffer with purified water to the volume of 1 L; and • c) preparation of FaSSGF solution by addition of FaSSGF powder: add 0.06 g of the FaSSGF powder to about 0.5 L of the buffer, stir until the powder was completely dissolved, and make up for the volume (1 L) with the buffer.
The FaSSIF solution was prepared as follows: • a) preparation of FaSSIF buffer: dissolve 0.42 g of NaOH, 3.44 g of anhydrous NaH2PO4, and 6.19 g of NaCl as raw materials in about 0.9 L of purified water; • b) adjustment the pH of the buffer: adjust the pH of the buffer to 6.5 with 1 N NaOH or 1 N HCL, and replenish the buffer with purified water to the volume of 1 L; and • c) preparation of FaSSIF solution by addition of FaSSIF powder: add 2.24 g of the FaSSIF powder to about 0.5 L of the buffer, stir until the powder was completely dissolved, and make up for the volume (1 L) with the buffer.
2). Preparation of the Solution of Control Compound:
The control compound was weighed and dissolved in DMSO to 10 mM to obtain a stock solution.
3) Preparation of the Solution of Compound to be Tested:
The compound to be tested was formulated into a 10 mM DMSO stock solution.
4) Preparation of Internal Standard Solution:
a) The internal standard was weighed and dissolved in DMSO to 10 mM to obtain an internal standard stock solution (ISTD stock solution).
b) The internal standard stock solution was diluted to 500 nM (Tolbutamide) with an ACN:methano mixture (volume ratio: 1:1) to obtain a quenching solution.
a) The FaSSGF solution at pH 1.6 and the FaSSIF solution at pH 6.5 were pre-warmed; and then, the compound was injected into the buffer.
Once done, the samples were centrifuged at 12,000 rpm for 10 min, and the supernatant was transferred to a new tube. The supernatant was diluted 10-fold and 100-fold with the FaSSGF solution at pH 1.6 or the FaSSIIF solution at pH 6.5. 20 μL of each sample (1×, 10×, 100× and standard curve) was added to 500 μL of the IS solution. The resulting mixture was vortexed vigorously for 1 min and centrifuged at 4,500 rpm for 15 min at 4° C. 150 μL of the supernatant was transferred for LC-MS/MS sample analysis.

Mouse PK assay = type: in vivo; conditions: CD1 mice, oral administration, 30 mg/kg, plasma; for bioavailability / half-life / MRT: mouse; for half-life: read-out: Half-life period (converted); for MRT: read-out: Mean residence time
Protocol: The goal of this assay was to study the pharmacokinetics of the test compound on CD1 mice (6-8 weeks old, Zhejiang Vegavit Bio-technology Co., Ltd.) after oral administration. The specific experimental procedures were as follows: • 1) the compound was dissolved in 8% DMSO+72% PEG 400+20% ([…]); and • 2) blood samples were collected, with 0.03 mL collected at 0.25 h, 0.5 h, 1 h, 2 h, 4 h, 8 h, and 24 h, and EDTA-K2 was added. CD1 mice: Approximately 0.03 mL of blood was collected at each time point. The blood was centrifuged for 5 min at 4000 g in a centrifuge at 4° C. to collect plasma. Plasma samples were aliquoted into clean polyethylene microcentrifuge tubes and then stored in a freezer at −75±15° C. before analysis; and • 3) samples were analyzed, and the concentration of the compound in each plasma sample was analyzed with LC-MS/MS. For plasma measurements, pharmacokinetic parameters were calculated using WinNonlin (Phoenix™, version 8.3) or other similar software.

HCC1806 = assay: Cell viability assay (CellTiter-Glo); type: cell-based, Human; conditions: HCC1806, 7 days, CellTiter-Glo, read-out: IC50 (nM) in cell viability assay
[2] = 4 nM PARG, 66.2 uM TFMU-ADPr, 3 min at room temperature
[3] = fassgf or other biorelevant, FaSSGF solution pH 1.6, 100 μM from DMSO stock, read-out: FaSSGF solubility
[4] = FaSSIF solution pH 6.5, 100 μM from DMSO stock, read-out: FaSSIF solubility

Chain of PARG (Q86W56 whole entry): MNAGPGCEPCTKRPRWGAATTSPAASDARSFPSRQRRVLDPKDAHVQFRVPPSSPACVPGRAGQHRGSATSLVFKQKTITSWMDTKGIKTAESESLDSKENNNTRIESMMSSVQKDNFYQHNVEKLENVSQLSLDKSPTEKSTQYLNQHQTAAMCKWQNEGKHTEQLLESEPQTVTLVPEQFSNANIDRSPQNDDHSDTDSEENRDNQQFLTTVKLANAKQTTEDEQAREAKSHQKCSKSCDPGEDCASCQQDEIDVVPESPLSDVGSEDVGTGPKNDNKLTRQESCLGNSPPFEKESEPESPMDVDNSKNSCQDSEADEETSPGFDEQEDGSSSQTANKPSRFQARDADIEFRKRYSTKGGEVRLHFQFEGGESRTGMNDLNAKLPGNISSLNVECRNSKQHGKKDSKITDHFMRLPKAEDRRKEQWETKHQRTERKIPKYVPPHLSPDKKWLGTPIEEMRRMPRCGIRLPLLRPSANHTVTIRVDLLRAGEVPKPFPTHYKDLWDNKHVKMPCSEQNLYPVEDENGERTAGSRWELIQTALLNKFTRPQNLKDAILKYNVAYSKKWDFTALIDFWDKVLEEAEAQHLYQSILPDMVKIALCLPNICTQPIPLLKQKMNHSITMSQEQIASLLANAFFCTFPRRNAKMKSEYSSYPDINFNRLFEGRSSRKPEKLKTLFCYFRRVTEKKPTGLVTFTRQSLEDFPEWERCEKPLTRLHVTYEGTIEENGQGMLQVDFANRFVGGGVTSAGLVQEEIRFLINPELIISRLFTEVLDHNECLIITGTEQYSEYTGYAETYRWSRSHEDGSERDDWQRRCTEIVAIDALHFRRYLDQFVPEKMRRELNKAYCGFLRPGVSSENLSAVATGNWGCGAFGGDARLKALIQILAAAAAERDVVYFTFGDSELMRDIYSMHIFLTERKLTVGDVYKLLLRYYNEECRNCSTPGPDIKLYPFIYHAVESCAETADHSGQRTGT

| IC50 (PARG; [2]) [nM] | IC50 (PARG; PARG, TFMU-ADPr substrate) [nM] | solubility at 2 h [1, 3] [µM] | solubility at 2 h [1, 4] [µM] | Area under the curve (0-last; hr*ng/mL) (Mouse PK assay) [ng·h/mL] | Peak concentration (Mouse PK assay) [ng/mL] | Time to peak (Mouse PK assay) [h] | bioavailability (Mouse PK assay) [%] | half-life (Mouse PK assay) [h] | MRT (Mouse PK assay) [h] | IC50 (HCC1806) [nM] | IC50 (HCC1806; Homo sapiens, HCC1806, 168 h) [nM] | SMILES |
| --- | --- | --- | --- | --- | --- | --- | --- | --- | --- | --- | --- | --- |
| < 100 | 0.77 | 0.9 (≈ 0.496 µg/mL) | 3.18 (≈ 1.75 µg/mL) | 13174 | 5317 | 0.333 | 47 | 1.31 | 1.92 | – | – | CC(C)C(=O)N1CCN(c2cc(S(=O)(=O)NC3(C#N)CC3)cn3c(-c4nnc(C(F)F)s4)ncc23)CC1 [Example 32, N-(1-cyanocyclopropyl)-3-(5-(difluoromethyl)-1,3,4-thiadiazol-2-yl)-8-(4-isobutyrylpiperazin-1-yl)imidazo[1,5-a]pyridine-6-sulfonamide] |
| < 100 | 16.6 | 57.5 (≈ 32.7 µg/mL) | 96.5 (≈ 54.9 µg/mL) | 29273 | 4087 | 1.67 | 85 | 2.75 | 4.81 | 290 | < 500 | CC(C)C(=O)N1CCN(c2cc(S(=O)(=O)NC3(C#N)CC3)cn3c(-c4nnc(C(F)(F)F)s4)ncc23)CC1 [Example 167, N-(1-cyanocyclopropyl)-8-(4-isobutyrylpiperazin-1-yl)-3-(5-(trifluoromethyl)-1,3,4-thiadiazol-2-yl)imidazo[1,5-a]pyridine-6-sulfonamide] |
